Like-named read-outs stand apart in the source and are kept apart here.
Experiments:
MDCK cells = details: Influenza B assay
[1] = test system: West Nile virus strain NY-99; experiment: Cytoprotection assay, West Nile virus; assay type: cell-based; details: West Nile Virus NY-99, Vero
[2] = Compound cytotoxicity in HIV cytoprotection assay (XTT); assay type: cell-based; details: human, MT-4 cells; MT-4, HIV-1 assay
Procedure: MT-4 cells ((Catalog #120) Human T-cell Leukemia) were obtained from the NIH AIDS Reference Reagent Program and were used in cytoprotection assays with HIV-1 Strain IIIB (Southern Research). They were grown in RPMI-1640 medium supplemented with 10% FBS.
Cytoprotection Assay for HIV:_MT-4 cells were sub-cultured one day prior to testing. Cells were plated in 96 well cell culture plates at a seeding density of 6×10^5 cells/ml (3×10^4 cells/well). […] Virus and cells were mixed in the presence of serial dilutions of test compound and incubated for 5 days at 37° C., 5% CO2. Each assay plate contained cell control wells (cells only), virus control wells (cells plus virus), compound toxicity control wells (cells plus compound only) as well as experimental wells (compound plus cells plus virus). Cytoprotection and compound cytotoxicity were assessed by XTT assay (Cat#11-465-015-001, Roche Diagnostics). The plates were read spectrophotometrically at 450/650 nm with a Molecular Devices SpectraMax M2 plate reader. The percent reduction in viral CPE was determined and reported as IC50, CC50 and a calculated TI. Samples were evaluated for antiviral efficacy and cytotoxicity with triplicate measurements using 9 concentrations at 2-fold dilutions. Each assay included Raltegravir (MK0518) as an antiviral positive control compound.

RSV strain Long = experiment: Cytoprotection assay, RSV; assay type: cell-based; details: human respiratory syncytial virus, Vero
[3] = test system: Yellow Fever Virus strain 17D; experiment: microbe, parasite or virus in culture; assay type: cell-based; details: HeLa
Rhinovirus strain 1B = experiment: Cytoprotection assay, Rhinovirus; assay type: cell-based; details: Enterovirus, MRC5
Poliovirus strain Chat = experiment: microbe, parasite or virus in culture; assay type: cell-based, Poliovirus I; details: Enterovirus C, Vero
[4] = test system: Dengue Virus Type 2 strain New Guinea; experiment: Cytoprotection assay, Dengue virus; assay type: cell-based; details: Vero C1008
[5] = Protide stability in normal plasma, human; assay type: in vitro ADME; details: 37° C.
Procedure: Selected nucleoside 5′-phosphoramidates were examined for stability in human, cynomolgous monkey, rat and mouse plasma at 37° C. at both 30 min and 90 min time points.
Protide Stability in Normal Plasma: Plasma samples were prepared for analysis as follows. 50 μl of each test sample were distributed a 96-well V-bottom plate. 200 μl of acetonitrile containing 10 ng/ml of an internal standard was added to each plasma sample. The precipitated samples were centrifuged at 2500 rpm, 4° C. for 20 minutes in a Sorvall RT6000S centrifuge (Thermo Scientific, Waltham Mass.) and 100 μl of supernatant from each sample was transferred into a 96 deep well plate followed by the addition of 100 μl H2O to each sample. Samples were covered, mixed well by vortexing and maintained at 2-8° C. before and during analysis. 15 μl of each test sample was analyzed for protide concentrations by liquid chromatography coupled to tandem mass spectrometry (LC-MS/MS). Liquid chromatography was performed with an Agilent 1100 Series HPLC system equipped with a Synergi 4 μm Polar-RP, 30×2.0 mm column (Phenomenex, Torrance, Calif.). The HPLC system was coupled to an API 4000 triple quadrupole mass spectrometer (Applied Biosystems, Framingham, Mass.). Mass spectrometry was performed in positive ion mode and data was analyzed using Analyst® v1.4.2 software (Applied Biosystems, Framingham, Mass.). Data was presented as the percentage of compound recovered as compared to the 0 time point control.

in vitro [6] = details: dog
[7] = test system: HCV replicon (Genotype 1b); experiment: Luciferase genotype 1b replicon potency assay; details: Hepatitis C virus, GETYPE1B, read-out: IC50 μM, HCV genotype 1b luciferase replicon, Renilla luciferase reporter
in vitro [8] = details: African green monkey
Influenza B strain Lee = experiment: Cytoprotection assay, Influenza B; assay type: cell-based; details: Influenza B virus, MDCK
[9] = Compound cytotoxicity in cytoprotection assay (MTS), MDBK; details: cow, MDBK cells
[10] = Compound cytotoxicity in cytoprotection assay (MTS), MRC-5; details: human, MRC-5 cells
HSV-1 strain HF = experiment: Cytoprotection assay, HSV-1; assay type: cell-based; details: Human alphaherpesvirus 1, Vero
[11] = test system: Influenza A strain Hong Kong; experiment: Cytoprotection assay, Influenza A; assay type: cell-based; details: Influenza A virus, MDCK
HeLa cells = details: human
Adenovirus Type 1 = experiment: Cytoprotection assay, Adenovirus; assay type: cell-based; details: Adenovirus Type I, HeLa

Q: Which CC50 (MDCK cells) does the source give for `COc1nc(N)nc2c1ncn2C1O[C@H](COP(=O)(N[C@@H](C)C(=O)OCC(C)(C)C)Oc2cccc3ccccc23)[C@@H](O)[C@@]1(C)O` (some centres unmarked) [Example 20] here?
A: Its CC50 is greater than 10 µM.

Q: And the EC50 [1]?
A: The EC50 was 1.69 µM.

Q: What about the CC50 at 5 days [2] of the same compound?
A: Its CC50 at 5 days is 11 µM.

Q: And the EC50 (RSV strain Long)?
A: Its EC50 is greater than 10 µM.

Q: And the EC50 [3]?
A: The EC50 was 0.418 µM.

Q: What about the EC50 (Rhinovirus strain 1B) of the same compound?
A: Its EC50 is greater than 10 µM.

Q: What about the EC50 (Poliovirus strain Chat) of the same compound?
A: The EC50 was 4.71 µM.

Q: What about the EC50 [4] of the same compound?
A: Its EC50 is 1.81 µM.

Q: What about the “% Compound Remaining Compared to %100 Acetonitrile Control” value ([5]; 30 min) of the same compound?
A: The value was 94.0%.

Q: And the “% Compound Remaining Compared to %100 Acetonitrile Control” value ([5]; 1.5 h)?
A: The value was 101.5%.

Q: What about the CC50 (in vitro [6]) of the same compound?
A: Its CC50 is greater than 10 µM.

Q: And the IC50 [7]?
A: Its IC50 is 0.001 µM.

Q: And the CC50 (in vitro [8])?
A: The CC50 was greater than 10 µM.

Q: What about the EC50 (Influenza B strain Lee) of the same compound?
A: The EC50 was greater than 10 µM.

Q: What about the CC50 at 7 days [9] of the same compound?
A: Its CC50 at 7 days is greater than 10 µM.

Q: What about the CC50 at 7 days [10] of the same compound?
A: Its CC50 at 7 days is 3.08 µM.

Q: What about the EC50 (HSV-1 strain HF) of the same compound?
A: The EC50 was greater than 10 µM.

Q: What about the CC50 (Vero cells; African green monkey) of the same compound?
A: Its CC50 is greater than 10 µM.

Q: What about the CC50 (Vero cells; Vero, HSV-1 assay) of the same compound?
A: The CC50 was greater than 10 µM.

Q: And the CC50 (Vero cells; Vero, RSV assay)?
A: Its CC50 is greater than 10 µM.

Q: And the EC50 [11]?
A: Its EC50 is greater than 10 µM.

Q: And the CC50 (HeLa cells)?
A: The CC50 was greater than 10 µM.

Q: And the EC50 (Adenovirus Type 1)?
A: The EC50 was greater than 10 µM.

Source: patent publication US8759318B2, “Phosphoramidate derivatives of guanosine nucleoside compounds for treatment of viral infections” (Inhibitex, Inc., priority 2009, dated 2014)
